# Test results published in patent US7541367B2, “3-benzoimidazolyl-pyrazolopyridines useful in treating kinase disorders” (Janssen Pharmaceutica, N.V., priority 2005, dated 2009).
# Columns and labels:
# RET = target: T1, RET (Homo sapiens, UniProt P07949); assay: RET kinase screening assay (33P-ATP FlashPlate); type: biochemical; settings: human RET kinase domain; 10 μM ATP; 1 hr at 30° C;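 also: biotinylated peptide substrate captured on streptavidin FlashPlate, 33P phosphate transfer read by scintillation counting, 1% DMSO, lower incorporation means inhibition, percent relative to per-plate maximum and minimum signals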
# T1 construct: polyhistidine (N)
# T1 sequence (P07949 658-1114 limits assumed): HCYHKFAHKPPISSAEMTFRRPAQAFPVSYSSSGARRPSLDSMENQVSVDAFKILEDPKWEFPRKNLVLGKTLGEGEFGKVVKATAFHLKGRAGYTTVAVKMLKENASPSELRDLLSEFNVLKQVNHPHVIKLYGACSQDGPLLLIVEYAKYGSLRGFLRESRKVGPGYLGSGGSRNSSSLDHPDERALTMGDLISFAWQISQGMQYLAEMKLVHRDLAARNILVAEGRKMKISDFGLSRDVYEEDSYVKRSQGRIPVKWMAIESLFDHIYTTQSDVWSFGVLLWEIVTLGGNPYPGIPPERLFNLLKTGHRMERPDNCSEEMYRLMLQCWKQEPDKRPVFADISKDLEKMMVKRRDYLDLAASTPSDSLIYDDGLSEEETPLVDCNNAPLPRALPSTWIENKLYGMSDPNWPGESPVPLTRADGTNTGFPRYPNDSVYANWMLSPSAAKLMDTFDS
# VEGF-R2 = target: T2, VEGF-R2 (Rattus norvegicus, UniProt O08775); assay: VEGF-R2 kinase screening assay (33P-ATP FlashPlate); type: biochemical; settings: rat VEGF-R2 kinase domain; 10 μM ATP; 1 hr at 30° C;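 also: Read-out is ³³P incorporation from ³³P-γ-ATP into biotinylated peptide substrate captured on streptavidin FlashPlate, counted by scintillation, 1% DMSO final, inhibition scaled between per-plate maximum and minimum signals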
# T2 construct: polyhistidine (N)
# T2 sequence (O08775 786-1343): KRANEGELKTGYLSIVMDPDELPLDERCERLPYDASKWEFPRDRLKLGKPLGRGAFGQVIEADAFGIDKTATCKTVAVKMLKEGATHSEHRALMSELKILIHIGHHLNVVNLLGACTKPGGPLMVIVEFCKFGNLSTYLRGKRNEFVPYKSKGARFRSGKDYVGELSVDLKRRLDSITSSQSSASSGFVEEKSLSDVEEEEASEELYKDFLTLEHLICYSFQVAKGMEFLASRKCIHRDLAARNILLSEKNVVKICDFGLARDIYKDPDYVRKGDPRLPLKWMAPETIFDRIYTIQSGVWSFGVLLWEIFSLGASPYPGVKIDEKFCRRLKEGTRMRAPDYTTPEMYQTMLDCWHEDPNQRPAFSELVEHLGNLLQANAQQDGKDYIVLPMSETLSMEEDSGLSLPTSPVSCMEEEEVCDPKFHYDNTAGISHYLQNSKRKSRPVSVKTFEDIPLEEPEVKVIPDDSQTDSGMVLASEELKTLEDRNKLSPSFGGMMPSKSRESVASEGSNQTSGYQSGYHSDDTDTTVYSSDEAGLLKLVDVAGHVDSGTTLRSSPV
# CDK1 = target: T3, CDK1 (Homo sapiens, UniProt P06493); assay: CDK-1 kinase screening assay (33P-ATP FlashPlate); type: biochemical; settings: human CDK1 with cyclin B; 10 μM ATP; 1 hr at 30° C
# T3 construct: purchased New England Biolabs, Beverly, Mass; 6020; host or cells: insect cells
# T3 sequence (P06493 whole entry): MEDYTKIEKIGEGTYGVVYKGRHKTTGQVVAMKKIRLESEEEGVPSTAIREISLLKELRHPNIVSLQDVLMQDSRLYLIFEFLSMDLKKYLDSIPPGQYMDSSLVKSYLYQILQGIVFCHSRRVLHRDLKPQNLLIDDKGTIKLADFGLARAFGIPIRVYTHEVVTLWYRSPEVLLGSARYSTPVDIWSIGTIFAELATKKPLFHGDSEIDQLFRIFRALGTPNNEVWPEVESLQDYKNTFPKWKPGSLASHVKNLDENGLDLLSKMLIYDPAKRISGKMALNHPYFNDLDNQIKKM
# T3 sequence (P14635 whole entry partner): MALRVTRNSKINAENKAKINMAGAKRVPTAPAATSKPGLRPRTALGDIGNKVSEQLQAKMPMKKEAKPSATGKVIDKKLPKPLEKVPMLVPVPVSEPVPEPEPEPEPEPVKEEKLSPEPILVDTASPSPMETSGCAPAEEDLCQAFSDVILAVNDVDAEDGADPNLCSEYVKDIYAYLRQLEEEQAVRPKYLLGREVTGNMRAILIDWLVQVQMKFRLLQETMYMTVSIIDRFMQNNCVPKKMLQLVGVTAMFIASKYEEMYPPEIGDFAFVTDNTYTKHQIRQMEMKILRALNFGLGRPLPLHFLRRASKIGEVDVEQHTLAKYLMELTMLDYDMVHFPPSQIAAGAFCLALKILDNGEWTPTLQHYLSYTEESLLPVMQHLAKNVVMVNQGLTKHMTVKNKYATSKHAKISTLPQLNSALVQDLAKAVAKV
# Description: A kinase reaction mixture was prepared containing 50 mM Tris-HCl pH=8, 10 mM MgCl2, 0.1 mM […], 1 mM DTT, 10 μM ATP, 0.025 μM biotinylated histone-H1 peptide substrate and 0.2 μCuries per well ^33P-γ-ATP (2000-3000 Ci/mmol). 70 μL of the kinase reaction mixture was dispensed into the well of a streptavidin coated FlashPlate™ (Cat. # SMP103, NEN, Boston, Mass.).
# Test compound stock in 100% DMSO (1 μL) was added to the wells resulting in a final concentration of 1% DMSO in the reaction with a 100 μL final reaction volume. Each enzyme was diluted in 50 mM Tris-HCl pH=8.0, 0.11% BSA and 30 μL was added to each well to initiate the reaction. The reaction was incubated for one hour at 30° C. At the end of the 1 hr incubation, the reaction was terminated by aspirating the mixture from the plate and washing the wells twice with PBS containing 100 mM EDTA. The biotinylated peptide substrate became immobilized on the Flashplate™ and the incorporation of ^33P-γ-ATP was measured by reading the plate on a scintillation counter. Inhibition of the enzymatic activity was measured by observing a reduced amount of ^33P-γ-ATP incorporated into the immobilized peptide.
# The CDK1 enzyme was isolated from insect cells expressing both the human CDK1 catalytic subunit (Accession number NM_001786) and its positive regulatory subunit cyclin B (New England Biolabs, Beverly, Mass.; Cat. # 6020). The assay used 30 ng of the N-terminal biotinylated peptide biotin-[…]-amide (Cyclin dependent kinase 1) per well.
# A maximum and minimum signal for the assay was determined on each plate. The percent inhibition of a test compound was calculated according to the formula: […]
# For a series of test concentrations, the IC50 was derived by graphing percent inhibition against the log of the concentrations tested for a given compound with results shown in Table 1.
# For compounds with multiple values, each value represents a separate assay result.
# HER2 = target: T4, HER2 (Homo sapiens, UniProt P04626); assay: HER2 kinase screening assay (33P-ATP FlashPlate); type: biochemical; settings: GST-HIS6 HER-2 aa 679 to 1255; 10 μM ATP; 1 hr at 30° C;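 also: Biotin-poly(GT) 4:1 peptide captured on streptavidin FlashPlate, 33P transfer from γ-ATP read by scintillation counting, lower incorporation means inhibition, 1% DMSO final, 100 µL reaction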
# T4 construct: GST (Glutathione-S-Transferase) (N); HIS6 (N); thrombin cleavage site (N); purchased Proqinase, Freiburg, Germany
# T4 sequence (P04626 679-1255): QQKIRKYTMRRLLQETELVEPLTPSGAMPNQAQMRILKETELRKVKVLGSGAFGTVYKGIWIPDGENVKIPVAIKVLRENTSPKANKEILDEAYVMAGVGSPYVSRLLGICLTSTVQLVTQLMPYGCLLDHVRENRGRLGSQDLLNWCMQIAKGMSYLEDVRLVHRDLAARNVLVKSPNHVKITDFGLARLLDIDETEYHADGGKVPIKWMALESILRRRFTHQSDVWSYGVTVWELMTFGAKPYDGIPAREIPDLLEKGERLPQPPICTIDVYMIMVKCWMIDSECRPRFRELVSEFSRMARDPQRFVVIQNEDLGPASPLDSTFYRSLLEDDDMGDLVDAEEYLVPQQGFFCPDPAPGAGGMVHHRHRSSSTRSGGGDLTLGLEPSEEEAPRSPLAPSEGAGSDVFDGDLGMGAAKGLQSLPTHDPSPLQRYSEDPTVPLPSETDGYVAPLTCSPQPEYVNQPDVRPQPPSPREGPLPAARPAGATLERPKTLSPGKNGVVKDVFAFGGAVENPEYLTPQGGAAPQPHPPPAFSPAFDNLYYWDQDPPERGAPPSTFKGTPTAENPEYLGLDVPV
# A375 malignant melanoma = assay: Cell Proliferation Inhibition Assay (14C-thymidine incorporation), A375; type: cell-based; settings: Homo sapiens, A-375, A375 cells;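 also: proliferation measured by radiolabelled thymidine uptake into new DNA, counted in scintillating 96-well plates, compound-treated wells compared with DMSO-only control wells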
# HCT-116 colon carcinoma = assay: Cell Proliferation Inhibition Assay (14C-thymidine incorporation), HCT-116; type: cell-based; settings: Homo sapiens, HCT-116, HCT-116 cells;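 also: proliferation measured as methyl 14C-thymidine uptake into new DNA, counted in 96-well scintillating microplates, compared with DMSO-only control wells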
# Aurora-A = target: T5, Aurora-A (Mus musculus, UniProt P97477); assay: Aurora-A kinase screening assay (33P-ATP FlashPlate); type: biochemical; settings: 10 μM ATP, 1 hr at 30° C;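 also: His-tagged mouse Aurora-A phosphorylating a biotinylated peptide captured on streptavidin plates, read as 33P uptake by scintillation counting, 1% DMSO, inhibition scaled between per-plate maximum and minimum signals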
# T5 construct: polyhistidine (N)
# T5 sequence (P97477 1-395): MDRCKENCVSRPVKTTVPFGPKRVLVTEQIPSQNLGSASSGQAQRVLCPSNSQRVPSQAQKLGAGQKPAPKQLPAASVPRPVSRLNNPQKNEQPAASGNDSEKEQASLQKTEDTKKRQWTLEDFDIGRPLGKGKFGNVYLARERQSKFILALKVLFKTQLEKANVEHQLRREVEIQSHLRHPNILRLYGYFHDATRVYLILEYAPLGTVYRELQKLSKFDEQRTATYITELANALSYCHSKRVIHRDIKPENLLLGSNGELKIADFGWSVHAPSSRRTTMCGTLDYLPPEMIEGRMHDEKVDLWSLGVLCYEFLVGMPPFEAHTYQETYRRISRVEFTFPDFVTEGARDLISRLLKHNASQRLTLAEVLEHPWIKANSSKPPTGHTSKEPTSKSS
# [1] = tested on: HeLa cervical adenocarcinoma; assay: Cell Proliferation Inhibition Assay (14C-thymidine incorporation), HeLa; type: cell-based; settings: Homo sapiens, HeLa, HeLa cells;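 also: test compound in DMSO added to cells seeded in scintillating 96-well plates, DMSO-only wells as control, uptake of methyl 14C-thymidine into new DNA counted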
Compound,IC50 (RET) [nM],IC50 (VEGF-R2) [nM],IC50 (CDK1) [nM],IC50 (HER2) [nM],IC50 (A375 malignant melanoma) [nM],IC50 (HCT-116 colon carcinoma) [nM],IC50 (Aurora-A) [nM],IC50 [1] [nM]
"COCc1cccc2[nH]c(-c3n[nH]c4ncc(-c5cncc6ccccc56)cc34)nc12 [Cpd 4, 4-[3-(4-methoxymethyl-1H-benzoimidazol-2-yl)-1H-pyrazolo[3,4-b]pyridin-5-yl]-isoquinoline]",> 10000,461,5.61,85.1,10.1,10.1,324,14.8
"CCN(CC)Cc1cccc2[nH]c(-c3n[nH]c4ncc(Br)cc34)nc12 [Cpd 6, [2-(5-bromo-1H-pyrazolo[3,4-b]pyridin-3-yl)-1H-benzoimidazol-4-ylmethyl]-diethyl-amine]",> 10000,952,77.6,89.4,255,259,975,354
"CC(C)NCc1cccc2[nH]c(-c3n[nH]c4ncc(-c5cncc6ccccc56)cc34)nc12 [Cpd 13, isopropyl-[2-(5-isoquinolin-4-yl-1H-pyrazolo[3,4-b]pyridin-3-yl)-1H-benzoimidazol-4-ylmethyl]-amine]",> 100000,~1000,12.8,> 100000,140,109,3620,134
"COCCOCc1cccc2[nH]c(-c3n[nH]c4ncc(-c5cncc6ccccc56)cc34)nc12 [Cpd 14, 4-{3-[4-(2-methoxy-ethoxymethyl)-1H-benzoimidazol-2-yl]-1H-pyrazolo[3,4-b]pyridin-5-yl}-isoquinoline]",~100000,4570,72.1,> 100000,649,312,> 1000,1000
"c1ccc2c(-c3cnc4[nH]nc(-c5nc6c(COCCN7CCOCC7)cccc6[nH]5)c4c3)cncc2c1 [Cpd 15, 4-{3-[4-(2-morpholin-4-yl-ethoxymethyl)-1H-benzoimidazol-2-yl]-1H-pyrazolo[3,4-b]pyridin-5-yl}-isoquinoline]",929,~1000,33,~100000,7610,5820,2270,8520
"CCOCCOCc1cccc2[nH]c(-c3n[nH]c4ncc(-c5cncc6ccccc56)cc34)nc12 [Cpd 16, 4-{3-[4-(2-ethoxy-ethoxymethyl)-1H-benzoimidazol-2-yl]-1H-pyrazolo[3,4-b]pyridin-5-yl}-isoquinoline]",> 1000,60.7,65.5,> 100000,910,237,> 1000,632
"O=C(O)c1cccc2[nH]c(-c3n[nH]c4ncc(-c5cncc6ccccc56)cc34)nc12 [Cpd 17, 2-(5-isoquinolin-4-yl-1H-pyrazolo[3,4-b]pyridin-3-yl)-1H-benzoimidazole-4-carboxylic acid]",> 100000,> 10000,541,> 100000,> 10000,> 10000,> 10000,> 10000
"O=C(c1cccc2[nH]c(-c3n[nH]c4ncc(-c5cncc6ccccc56)cc34)nc12)N1CCCC1 [Cpd 21, [2-(5-isoquinolin-4-yl-1H-pyrazolo[3,4-b]pyridin-3-yl)-1H-benzoimidazole-4-yl]-pyrrolidin-1-yl-methanone]",> 10000,2790,162,> 10000,472,899,4830,804
"O=C(c1cccc2[nH]c(-c3n[nH]c4ncc(-c5cncc6ccccc56)cc34)nc12)N1CCCCC1 [Cpd 22, [2-(5-isoquinolin-4-yl-1H-pyrazolo[3,4-b]pyridin-3-yl)-1H-benzoimidazol-4-yl]-piperidin-1-yl-methanone]",~100000,2120,137,> 10000,188,554,1990,594
"CN1CCN(C(=O)c2cccc3[nH]c(-c4n[nH]c5ncc(-c6cncc7ccccc67)cc45)nc23)CC1 [Cpd 23, [2-(5-isoquinolin-4-yl-1H-pyrazolo[3,4-b]pyridin-3-yl)-1H-benzoimidazole-4-yl]-(4-methyl-piperazin-1-yl)-methanone]",> 100000,6930,1630,> 10000,2760,3170,10900,6580
"O=C(c1cccc2[nH]c(-c3n[nH]c4ncc(-c5cncc6ccccc56)cc34)nc12)N1CCOCC1 [Cpd 24, [2-(5-isoquinolin-4-yl-1H-pyrazolo[3,4-b]pyridin-3-yl)-1H-benzoimidazole-4-yl]-morpholin-4-yl-methanone]",~100000,4620,42,> 10000,490,743,2790,460
"CN(C)CCNC(=O)c1cccc2[nH]c(-c3n[nH]c4ncc(-c5cncc6ccccc56)cc34)nc12 [Cpd 25, 2-(5-isoquinolin-4-yl-1H-pyrazolo[3,4-b]pyridin-3-yl)-1H-benzoimidazole-4-carboxylic acid (2-dimethylamino-ethyl)-amide]",> 100000,~100000,113,> 10000,2020,1220,> 1000,3800
"CN(C)CCN(C)C(=O)c1cccc2[nH]c(-c3n[nH]c4ncc(-c5cncc6ccccc56)cc34)nc12 [Cpd 26, 2-(5-isoquinolin-4-yl-1H-pyrazolo[3,4-b]pyridin-3-yl)-1H-benzoimidazole-4-carboxylic acid (2-dimethylamino-ethyl)-methyl-amide]",~100000,> 10000,244,> 10000,1210,890,12100,1160
"CN1CCN(c2ccc3[nH]c(-c4n[nH]c5ncc(-c6cccnc6)cc45)nc3c2)CC1 [Cpd 89, 3-[5-(4-methyl-piperazin-1-yl)-1H-benzoimidazol-2-yl]-5-pyridin-3-yl-1H-pyrazolo[3,4-b]pyridine]",193,47.5,,31800,544,423,225,617
